Reference: patent publication US10336702B2, “Pharmaceutically active compounds” (BERGENBIO ASA, priority 2015, dated 2019)

Experiments:
Akt1 = biological target: T1, Akt1 (Homo sapiens, UniProt P31749); assay: Akt activation assay (PDK1-mediated activation, LANCE Ultra crosstide TR-FRET), Akt1; assay type: biochemical; settings: read-out: Biological Assay 1 IC50 (nM) Akt1
T1 construct: unspecified tag, removed (detagged) (cleaved yes); purchased SignalChem and Proteros (Akt1); Merck Millipore (PDK1) 14-452 (PDK1); none given for Akt1
Outline: (§1)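 Two-step cascade format: Akt1, Akt2 or Akt3 phosphorylates Ulight-crosstide (100 nM) only after activation by 5 nM PDK1 in presence of PtdIns(3,4,5)P3 vesicles and 100 μM ATP. Product quantified by Eu-antibody TR-FRET after 30 min reaction.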

Akt2 = biological target: T2, Akt2 (Homo sapiens, UniProt P31751); assay: Akt activation assay (PDK1-mediated activation, LANCE Ultra crosstide TR-FRET), Akt2; assay type: biochemical; settings: read-out: Biological Assay 1 IC50 (nM) Akt2
T2 construct: unspecified tag, removed (detagged) (cleaved yes); purchased SignalChem and Proteros (Akt2); Merck Millipore (PDK1) 14-452 (PDK1); none given for Akt2
Outline: as §1

Akt3 = biological target: T3, Akt3 (Homo sapiens, UniProt Q9Y243); assay: Akt activation assay (PDK1-mediated activation, LANCE Ultra crosstide TR-FRET), Akt3; assay type: biochemical; settings: read-out: Biological Assay 1 IC50 (nM) Akt3
T3 construct: unspecified tag, removed (detagged) (cleaved yes); purchased SignalChem and Proteros (Akt3); Merck Millipore (PDK1) 14-452 (PDK1); none given for Akt3
Outline: as §1

p-Akt1 in LNCaP cells = biological target: T4, p-Akt1 in LNCaP cells (Homo sapiens, UniProt P31749); assay: Phospho-Akt cellular SureFire assay, p-Akt1 in LNCaP cells; assay type: cell-based; settings: read-out: Biological Assay 2 IC50 (nM) Akt1 LNCaP
T4 construct: SureFire assays to detect cellular p-Akt1, p-Akt2 and p-Akt3 levels in WM115 cells (Akt2/3) and LNCaP cells (Akt1); endogenous in cells; host or cells: LNCaP (ECACC 89110211)
Excerpt: (§2) Biological Assay 2: Phospho-Akt (p-Akt) Cellular SureFire Assays
(§3) The following describes SureFire assays to detect cellular p-Akt1, p-Akt2 and p-Akt3 levels in WM115 cells (Akt2/3) and LNCaP cells (Akt1). In the case of Akt2 and Akt3, Streptavidin-coated donor beads capture a biotinylated anti-mouse antibody that in turn recognises a mouse total Akt antibody which is specific to each isoform. The protein A-conjugated acceptor beads capture an antibody that recognises the phosphoprotein. Similarly in the Akt1 kit, the donor and acceptor beads are used to capture each antibody pair consisting of an antibody that specifically recognises Akt1 as well as an antibody that recognises the phosphoprotein. In each case, close proximity of the beads allows energy transfer from donor to acceptor.
AlphaScreen® SureFire™ Phospho-Akt1 (pThr308) Kit from Perkin Elmer (TGRA2S10K)
LNCaP cells (ECACC, 89110211) cultured in RPMI-1640 culture media (Fisher, 10665193) supplemented with 2 mM L-glutamine, 1% sodium pyruvate and 10% FBS
(§4) Cell treatment: 1×10^5 WM115 cells or 5×10^4 LNCaP cells were seeded into each well of a 96 well poly-D-Lysine coated tissue culture plate and incubated overnight at 37° C.+5% CO2. Media was removed from cells and replaced with assay buffer consisting of the full culture media described above but with 0.1% FBS instead of 10% FBS. Only WM115 cells were stimulated at 37° C.+5% CO2 for 10 min with 5 μL insulin at a final concentration of 100 nM. Cells were incubated with 5 μL of test compound at a final DMSO concentration of 0.3% for 15 min at 37° C.+5% CO2. Cell lysis was carried out according to kit instructions.
(§5) Assay format (performed in subdued lighting): 4 μL cell lysate and 5 μL reaction buffer were incubated together in the dark at room temperature for 2 h. Reaction buffer was supplemented with a 1/5 dilution of activation buffer, a 1/50 dilution of acceptor beads and in the case of the custom kits, antibodies were added at dilutions of 1/20,000 for Akt2 and 1/2,000 for Akt3.
(§6) 2 μL dilution buffer, supplemented with a 1/20 dilution of donor beads was added to each well and incubated for a further 2 h. Plates were read with the EnVision® Multilabel Plate Reader and using the AlphaScreen settings. Compound IC50 was determined using a 4-parameter equation.

p-Akt3 in WM115 cells = biological target: T5, p-Akt3 in WM115 cells (Homo sapiens, UniProt Q9Y243); assay: Phospho-Akt cellular SureFire assay, p-Akt3 in WM115 cells; assay type: cell-based; settings: insulin stimulated, read-out: Biological Assay 2 IC50 (nM) Akt3 WM115
T5 construct: SureFire assays to detect cellular p-Akt1, p-Akt2 and p-Akt3 levels in WM115 cells (Akt2/3) and LNCaP cells (Akt1); endogenous in cells; host or cells: WM115 (ECACC 91061232), insulin-stimulated
Excerpt: as §2, §3
(§7) Custom kit from TGR/Perkin Elmer for Akt2/3 containing anti-(pThr308)Akt antibody and biotinylated anti-mouse capture antibody.
Total Akt3 antibody (R&D Systems MAB 1463)
(§8) WM115 cells (ECACC, 91061232) cultured in MEM culture media (M2279) supplemented with 2 mM L-glutamine (G7513), 1% non-essential amino acids (M7145), 1% sodium pyruvate (S8636) and 10% FBS (F0804)
as §4, §5, §6

p-Akt2 in WM115 cells = biological target: T6, p-Akt2 in WM115 cells (Homo sapiens, UniProt P31751); assay: Phospho-Akt cellular SureFire assay, p-Akt2 in WM115 cells; assay type: cell-based; settings: insulin stimulated, read-out: Biological Assay 2 IC50 (nM) Akt2 WM115
T6 construct: SureFire assays to detect cellular p-Akt1, p-Akt2 and p-Akt3 levels in WM115 cells (Akt2/3) and LNCaP cells (Akt1); endogenous in cells; host or cells: WM115 (ECACC 91061232), insulin-stimulated
Excerpt: as §2, §3, §7
Total Akt2 antibody (NEB UK, 5239)
as §8, §4, §5, §6

T5 sequence (Q9Y243 whole entry): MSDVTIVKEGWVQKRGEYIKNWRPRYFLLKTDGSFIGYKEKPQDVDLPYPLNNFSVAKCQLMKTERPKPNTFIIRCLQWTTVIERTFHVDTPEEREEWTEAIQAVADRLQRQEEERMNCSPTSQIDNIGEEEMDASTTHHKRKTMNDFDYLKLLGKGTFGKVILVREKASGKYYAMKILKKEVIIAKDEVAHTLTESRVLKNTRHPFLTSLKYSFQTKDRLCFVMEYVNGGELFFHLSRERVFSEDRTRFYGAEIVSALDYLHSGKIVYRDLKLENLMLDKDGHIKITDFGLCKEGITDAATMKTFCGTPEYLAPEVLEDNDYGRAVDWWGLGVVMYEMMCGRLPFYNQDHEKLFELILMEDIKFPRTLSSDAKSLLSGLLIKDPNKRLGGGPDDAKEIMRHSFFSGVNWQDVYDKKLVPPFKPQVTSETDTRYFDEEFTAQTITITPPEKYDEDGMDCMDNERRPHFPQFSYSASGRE
T3 sequence (Q9Y243 whole entry): as above
T1 sequence (P31749 whole entry): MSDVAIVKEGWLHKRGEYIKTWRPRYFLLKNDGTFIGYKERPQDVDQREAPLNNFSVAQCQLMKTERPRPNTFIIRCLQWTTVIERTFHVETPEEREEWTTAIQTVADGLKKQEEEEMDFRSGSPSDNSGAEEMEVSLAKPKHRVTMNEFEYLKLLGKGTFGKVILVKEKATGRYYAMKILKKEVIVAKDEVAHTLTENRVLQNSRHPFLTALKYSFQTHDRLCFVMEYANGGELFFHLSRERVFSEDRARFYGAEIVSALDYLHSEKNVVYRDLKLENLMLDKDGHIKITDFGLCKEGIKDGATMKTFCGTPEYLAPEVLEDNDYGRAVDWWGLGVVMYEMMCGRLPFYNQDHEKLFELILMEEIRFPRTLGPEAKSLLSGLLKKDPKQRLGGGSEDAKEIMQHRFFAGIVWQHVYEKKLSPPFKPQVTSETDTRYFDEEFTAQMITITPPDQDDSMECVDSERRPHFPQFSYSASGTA
T6 sequence (P31751 whole entry): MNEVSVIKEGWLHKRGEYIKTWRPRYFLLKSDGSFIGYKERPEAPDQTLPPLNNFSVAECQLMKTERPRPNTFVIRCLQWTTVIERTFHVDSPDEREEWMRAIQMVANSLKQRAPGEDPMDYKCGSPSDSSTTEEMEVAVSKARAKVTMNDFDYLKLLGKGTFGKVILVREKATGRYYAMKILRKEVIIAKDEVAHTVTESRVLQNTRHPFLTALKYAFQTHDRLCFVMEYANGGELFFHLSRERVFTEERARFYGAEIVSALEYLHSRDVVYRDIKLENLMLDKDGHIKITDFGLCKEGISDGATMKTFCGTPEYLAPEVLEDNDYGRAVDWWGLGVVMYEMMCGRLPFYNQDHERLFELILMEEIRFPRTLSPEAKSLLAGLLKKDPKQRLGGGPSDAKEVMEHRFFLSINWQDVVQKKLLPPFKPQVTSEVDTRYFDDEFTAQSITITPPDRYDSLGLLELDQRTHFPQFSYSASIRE
T2 sequence (P31751 whole entry): as above
T4 sequence (P31749 whole entry): as the sequence (P31749 whole entry) above

Row | SMILES | IC50 (Akt1) | IC50 (Akt2) | IC50 (Akt3) | IC50 (p-Akt1 in LNCaP cells) | IC50 (p-Akt3 in WM115 cells) | IC50 (p-Akt2 in WM115 cells)
1 | CC(C)(N)c1ccc(-c2ncc(NC(=O)C[C@H]3CC[C@H](N4CCCCC4=O)CC3)cc2-c2ccccc2)cc1 [Example 28, N-(6-(4-(2-aminopropan-2-yl)phenyl)-5-phenylpyridin-3-yl)-2-(trans-4-(2-oxopiperidin-1-yl)cyclohexyl)acetamide] | > 30000 nM | 7000 nM | 440 nM | > 30000 nM | 260 nM | –
2 | CCC(=O)N(C)[C@H]1CC[C@H](CC(=O)Nc2cc(-c3ccccc3F)c(-c3ccc([C@]4(N)C[C@](C)(O)C4)cc3)cn2)CC1 [Example 95, N-(trans-4-(2-((5-(4-(trans-1-amino-3-hydroxy-3-methylcyclobutyl)phenyl)-4-(2-fluorophenyl)pyridin-2-yl)amino)-2-oxoethyl)cyclohexyl)-N-methylpropionamide] | > 22000 nM | 120 nM | 10 nM | – | 17 nM | 660 nM
3 | CN(C(=O)C(F)F)[C@H]1CC[C@H](CC(=O)Nc2cc(-c3ccccc3)c(-c3ccc([C@]4(N)C[C@](C)(O)C4)cc3)cn2)CC1 [Example 109, N-(trans-4-(2-((5-(4-(trans-1-amino-3-hydroxy-3-methylcyclobutyl)phenyl)-4-phenylpyridin-2-yl)amino)-2-oxoethyl)cyclohexyl)-2,2-difluoro-N-methylacetamide] | > 30000 nM | 220 nM | 12 nM | – | 13 nM | 780 nM
4 | CC(=O)N(C)[C@H]1CC[C@H](CC(=O)Nc2cc(-c3ccccc3)c(-c3ccc([C@]4(N)C[C@](C)(O)C4)c(F)c3)cn2)CC1 [Example 111, N-(5-(4-(trans-1-amino-3-hydroxy-3-methylcyclobutyl)-3-fluorophenyl)-4-phenylpyridin-2-yl)-2-(trans-4-(N-methylacetamido)cyclohexyl)acetamide] | > 27000 nM | 1400 nM | 68 nM | – | 29 nM | 3200 nM
5 | CCC(=O)N(C)[C@H]1CC[C@H](CC(=O)Nc2cc(-c3ccccc3)c(-c3ccc([C@]4(N)C[C@](C)(O)C4)c(F)c3)cn2)CC1 [Example 112, N-(trans-4-(2-((5-(4-(trans-1-amino-3-hydroxy-3-methylcyclobutyl)-3-fluorophenyl)-4-phenylpyridin-2-yl)amino)-2-oxoethyl)cyclohexyl)-N-methylpropionamide] | > 30000 nM | 1300 nM | 55 nM | – | 31 nM | 3400 nM
6 | CCC(=O)N(CC)[C@H]1CC[C@H](CC(=O)Nc2cc(-c3ccccc3)c(-c3ccc([C@]4(N)C[C@](C)(O)C4)cc3)cn2)CC1 [Example 115, N-(trans-4-(2-((5-(4-(trans-1-amino-3-hydroxy-3-methylcyclobutyl)phenyl)-4-phenylpyridin-2-yl)amino)-2-oxoethyl)cyclohexyl)-N-ethylpropionamide] | > 30000 nM | 330 nM | 24 nM | – | 15 nM | 1000 nM
7 | CCN(C(=O)OC)[C@H]1CC[C@H](CC(=O)Nc2cc(-c3ccccc3)c(-c3ccc([C@]4(N)C[C@](C)(O)C4)cc3)cn2)CC1 [Example 116, Methyl (trans-4-(2-((5-(4-(trans-1-amino-3-hydroxy-3-methylcyclobutyl)phenyl)-4-phenylpyridin-2-yl)amino)-2-oxoethyl)cyclohexyl) (ethyl)carbamate] | > 30000 nM | 220 nM | 21 nM | – | 72 nM | 1400 nM
8 | CCC(=O)N(C)[C@H]1CC[C@H](CC(=O)Nc2cc(-c3ccccc3)c(-c3ccc([C@]4(N)C[C@H](F)C4)cc3)nn2)CC1 [Example 123, N-(trans-4-(2-((6-(4-(trans-1-amino-3-fluorocyclobutyl)phenyl)-5-phenylpyridazin-3-yl)amino)-2-oxoethyl)cyclohexyl)-N-methylpropionamide] | > 25000 nM | 230 nM | 12 nM | – | 38 nM | 1700 nM
9 | NC1(c2ccc(-c3ncc(NC(=O)C[C@H]4CC[C@H](N5CCOC5=O)CC4)cc3-c3ccccc3)cc2)CC(F)(F)C1 [Example A3, N-(6-(4-(1-amino-3,3-difluorocyclobutyl)phenyl)-5-phenylpyridin-3-yl)-2-(trans-4-(2-oxooxazolidin-3-yl)cyclohexyl)acetamide] | > 5100 nM | 530 nM | 150 nM | – | 100 nM | 2600 nM
10 | Cc1nncn1[C@H]1CC[C@H](CC(=O)Nc2cnc(-c3ccc(C4(N)CCC4)cc3)c(-c3ccccc3)c2)CC1 [Example A17, N-(6-(4-(1-aminocyclobutyl)phenyl)-5-phenylpyridin-3-yl)-2-(trans-4-(3-methyl-1,2,4-triazol-4-yl)cyclohexyl)acetamide] | 1500 nM | 420 nM | 62 nM | – | 1000 nM | 12000 nM
11 | NC1(c2ccc(-c3ncc(NC(=O)C[C@H]4CC[C@H](N5CCOC5=O)CC4)cc3-c3ccccc3)cc2)CCC1 [Example A27, N-(6-(4-(1-aminocyclobutyl)phenyl)-5-phenylpyridin-3-yl)-2-(trans-4-(2-oxooxazolidin-3-yl)cyclohexyl)acetamide] | 4100 nM | 180 nM | 19 nM | – | 51 nM | 790 nM
12 | CC(=O)N(C)[C@H]1CC[C@H](CC(=O)Nc2cc(-c3ccccc3)c(-c3ccc(C4(N)CCC4)cc3)nn2)CC1 [Example A56, N-(6-(4-(1-aminocyclobutyl)phenyl)-5-phenylpyridazin-3-yl)-2-(trans-4-(N-methylacetamido)cyclohexyl)acetamide] | 11000 nM | 270 nM | 7 nM | – | 43 nM | 1300 nM
13 | CCOC(=O)N(C)[C@H]1CC[C@H](CC(=O)Nc2cc(-c3ccsc3)c(-c3ccc([C@]4(N)C[C@](C)(O)C4)cc3)cn2)CC1 [Example A90, Ethyl (trans-4-(2-((5-(4-(trans-1-amino-3-hydroxy-3-methylcyclobutyl)phenyl)-4-(thiophen-3-yl)pyridin-2-yl)amino)-2-oxoethyl)cyclohexyl)(methyl)carbamate] | 10000 nM | 300 nM | 15 nM | – | 180 nM | 4700 nM
14 | CCC(=O)N(C)[C@H]1CC[C@H](CC(=O)Nc2cc(-c3ccccc3F)c(-c3ccc(C4(N)CCC4)cc3)cn2)CC1 [Example A102, N-(trans-4-(2-((5-(4-(1-aminocyclobutyl)phenyl)-4-(2-fluorophenyl)pyridin-2-yl)amino)-2-oxoethyl)cyclohexyl)-N-methylpropionamide] | > 19000 nM | 100 nM | 14 nM | – | 160 nM | 2300 nM
